The record followed here is US20140121178A1, “METHOD AND IMPROVED PHARMACEUTICAL COMPOSITION FOR IMPROVING THE ABSORPTION OF AN ESTER PRODRUG” (ACENDA PHARMA INC., priority 2011, published 2014).

Structures can show the parent of a compound that is named as a salt.

One data set is described as follows: in vivo. The following applies: male, Sprague-Dawley, rat, po, 30 mg/kg. The procedure: Male rats (Sprague-Dawley, 300-400 g) were surgically implanted with jugular-vein cannulas one day prior to dosing and fasted overnight (about 18-20 hours) prior to dosing. Water was available ad libitum throughout the experiment. Dosing solutions of olmesartan medoxomil (5 mg/ml) were prepared in a vehicle of DMSO/PEG400 (10/90, v/v) or DMSO/PEG400/triacetin (10/80/10, v/v). Single oral doses of the olmesartan medoxomil and olmesartan medoxomil/triacetin were each administered separately to a group of 3 male rats by gavage. Each rat received olmesartan medoxomil (5 mg/kg) in DMSO/PEG400 (10/90, v/v) or olmesartan medoxomil (5 mg/kg) in DMSO/PEG400/triacetin (10/80/10, v/v).
Blood samples (0.15 ml/rat) were collected from each rat via the jugular-vein cannula at 0, 0.25, 0.5, 1, 2, 4, 6, 8, and 24 hours after dosing. Plasma was separated from blood cells by centrifugation and frozen at −20° C. until analysis. […] A plasma concentration-time curve was plotted based on the obtained data.

Data set [1] in a line: Rat oral pharmacokinetics of clopidogrel bisulfate (3 mg/kg) with or without triethyl citrate/triacetin. It counts as in vivo, rats. The following applies: Sprague-Dawley, plasma. The procedure:
Serial plasma samples were obtained from each rat and concentrations of clopidogrel and clopidogrel acid in the plasma samples were determined by LC-MS/MS.

Data set [2] has as its system CE from porcine liver. Briefly: In vitro CE-mediated hydrolysis of clopidogrel in the presence of triacetin, triethyl citrate or both. It counts as in vitro ADME. The following applies: Table 2.
Data set [3] relates to CE from porcine liver. As to the kind of experiment: In vitro CE-mediated hydrolysis of olmesartan medoxomil in the presence of ester excipients. It counts as in vitro ADME. The settings on record: for effect on CE-mediated hydrolysis of olmesartan medoxomil (in words): compared with lecithin, Table 1; for preliminary screen of ester excipients for impeding hydrolysis of olmesartan medoxomil by CE in vitro: preliminary results. The procedure: Various known pharmaceutical ester excipients including triacetin, glyceryl tristearate, triethyl citrate, lecithin, tri-n-butyl citrate, acetyl triethyl citrate, and acetyl tri-n-butyl citrate were respectively tested to determine whether any of them impedes hydrolysis of olmesartan medoxomil by CE in vitro.
Test solutions (a) to (f) were prepared respectively as follows: (a) 10 μM of olmesartan medoxomil dissolved in 10% DMSO (dimethyl sulfoxide)/90% PEG400 (w/w, stability control); (b) 10 μM of olmesartan medoxomil dissolved in 10% DMSO/90% PEG400 (w/w, blank control) (c) 10 μM of olmesartan medoxomil dissolved in 10% DMSO/12% triacetin/78% PEG400 (w/w/w); (d) 10 μM of olmesartan medoxomil dissolved in 10% DMSO/12% triethyl citrate/78% PEG400 (w/w/w); (e) 10 μM of olmesartan medoxomil dissolved in 10% DMSO/12% lecithin/78% PEG400 (w/w/w); and (f) 10 μM of olmesartan medoxomil dissolved in 10% DMSO/6% triacetin/6% triethyl citrate/78% PEG400 (w/w/w/w).
CE from porcine liver (17 units/mg, available from Sigma-Aldrich) was dissolved in simulated intestinal fluid (SIF, pH=6.8) to yield a CE solution (17 units/ml). SIF was prepared by dissolving 0.6805 g of KH2PO4 and 0.0896 g of NaOH in 100 ml of de-ionized water.
Each 70 μl of olmesartan medoxomil solution (i.e., solutions (a)-(f)) was mixed with 70 μl of SIF and thereby forming mixtures (a) to (f). Each of the mixtures (a) to (f) was transferred to one well of a 96-well plate, and 60 μl each of the CE solution was added to respective wells containing mixtures (b) to (f) to initiate the reaction. In addition, sixty (60) μl of SIF without CE was added to mixture (a). This incubation mixture without CE was used as a stability control to determine the chemical stability of olmesartan medoxomil in the incubation mixture. The mixtures were incubated for 20 minutes under the air at 37° C. with constant shaking on a temperature-controlled heating block.
At the end of the 20-minute incubation, 100 μl of ice-cold acetonitrile was added to each well to terminate the reaction. Each mixture was vortexed and centrifuged at 15,000×g for 20 min at room temperature. The supernatants were tested in HPLC/UV analysis, in which the concentration of olmesartan medoxomil in each mixture was measured. Percentages (%) of olmesartan medoxomil remaining in the mixtures were calculated based on the obtained data.

Data set [4] in a line: Rat oral pharmacokinetics of olmesartan medoxomil with or without triacetin. The settings on record: rats, oral administration, plasma LC-MS/MS. Format: in vivo, rats (Sprague-Dawley). The procedure: Water was available ad libitum throughout the experiment. Dosing solutions of olmesartan medoxomil (5 mg/ml) were prepared in a vehicle of DMSO/PEG400 (10/90, v/v) or DMSO/PEG400/triacetin (10/80/10, v/v). […] Each rat received olmesartan medoxomil (5 mg/kg) in DMSO/PEG400 (10/90, v/v) or olmesartan medoxomil (5 mg/kg) in DMSO/PEG400/triacetin (10/80/10, v/v).

Data set [5] is described as follows: Rat oral pharmacokinetics of capecitabine with or without triethyl citrate. The settings on record: capecitabine in rat plasma, capecitabine 5 mg/kg, triethyl citrate 45 mg/kg where given. Format: in vivo, rats. The procedure:
Capecitabine is an ester prodrug, which is hydrolyzed mainly by CE2 in the GI track and CE1 in the liver and then converted by two enzymes to its active drug (5-fluorouracil) in the tumor after oral administration of capecitabine to cancer patients. […] Each rat received capecitabine (5 mg/kg) in DMSO or capecitabine (5 mg/kg) in DMSO/triethyl citrate (45 mg/kg).

Data set [6] in a line: Rat oral pharmacokinetics of capecitabine with or without triethyl citrate/triacetin. Format: in vivo, rats. The settings on record: capecitabine in rat plasma, capecitabine 5 mg/kg, triethyl citrate 22.5 mg/kg + triacetin 22.5 mg/kg where given. The procedure: In a rat study similar to the study described above, each rat received capecitabine (5 mg/kg) in DMSO or capecitabine (5 mg/kg) in DMSO/triethyl citrate (22.5 mg/kg)/triacetin (22.5 mg/kg).

[7] abbreviates: mean n=3, read-out: AUC0-24 hr of capecitabine.

On to `COC(=O)[C@H](c1ccccc1Cl)N1CCc2sccc2C1` [Clopidogrel Bisulfate, clopidogrel bisulfate], for which the AUC(0-t) in the data set “in vivo” came to 28 ng·h/mL; in data set [1] (read-out: AUC0-24 hr of clopidogrel), 2 ng·h/mL. The figures for the highest concentration (Cmax) (in “in vivo”; in data set [1]) were 7.3 ng/mL and 0.8 ng/mL, respectively. Besides, the Tmax (as a rule, the time from dosing to the highest level) came to 4.1 h in the data set “in vivo” and 2.9 h in data set [1].
`CC(=O)OCC(COC(C)=O)OC(C)=O` [triacetin]: the “effect on CE-mediated hydrolysis of clopidogrel (in words)” value with CE from porcine liver [2] is given as “retard CE-mediated hydrolysis of clopidogrel”. In the data set with CE from porcine liver [3], the “effect on CE-mediated hydrolysis of olmesartan medoxomil (in words)” value was “retards CE-mediated hydrolysis of olmesartan medoxomil” and the “preliminary screen of ester excipients for impeding hydrolysis of olmesartan medoxomil by CE in vitro” value is recorded as “promising candidates”.
As to `CCCc1nc(C(C)(C)O)c(C(=O)OCc2oc(=O)oc2C)n1Cc1ccc(-c2ccccc2-c2nnn[nH]2)cc1` [Olmesartan Medoxomil, olmesartan medoxomil], in data set [4], the “hydrolysis of olmesartan medoxomil to olmesartan after absorption” value was “completely hydrolyzed to olmesartan”.
For the compound `CCCCCOC(=O)Nc1nc(=O)n([C@@H]2O[C@H](C)[C@@H](O)[C@H]2O)cc1F` [Capecitabine, capecitabine], the values for the peak concentration (Cmax) in data set [5] (mean n=3) and in data set [6] (mean n=3) were 11.8 ng/mL and 8.9 ng/mL, respectively. The Tmax in data set [5] (mean n=3) was 48 min; in data set [6] (mean n=3), 24 min. Moreover, the AUC(0-t) worked out at 34 ng·h/mL in data set [5] (setting [7]) and 15 ng·h/mL in data set [6] (setting [7]).
Turning to `CCOC(=O)CC(O)(CC(=O)OCC)C(=O)OCC` [triethyl citrate], in the data set with CE from porcine liver [2], the “effect on CE-mediated hydrolysis of clopidogrel (in words)” value was “retard CE-mediated hydrolysis of clopidogrel”; the “effectiveness in impeding CE-mediated hydrolysis of clopidogrel compared with triacetin and lecithin (in words)” value is “more effective in impeding CE-mediated hydrolysis of clopidogrel than triacetin and lecithin”. Further, in the data set with CE from porcine liver [3], the “effect on CE-mediated hydrolysis of olmesartan medoxomil (in words)” value is “retards CE-mediated hydrolysis of olmesartan medoxomil” and the “preliminary screen of ester excipients for impeding hydrolysis of olmesartan medoxomil by CE in vitro” value is given as “promising candidates”.
